How the values were obtained:
[1] = tested on: grey mold (Botrytis cinerea); assay: Disease control assay, tomato plants infected with grey mold; assay type: in vivo; details: peptide sprayed 24 h post infection at 0.1 g/l or 0.3 g/l, FIG. 17
Description: The peptides were sprayed 24 h post infection at concentration of 0.1 g/l or 0.3 g/l.
Peptide production was performed using the chaotropic agent-free protocol described in Example 8.
A synthetic peptide (MP18913), which mimics the concatemeric sequence with an N-terminus proline (P) and C-terminus aspartate (D), was chemically synthetized and used as a control treatment.
Peptide activity was assessed by a disease control assay using tomato plants infected with grey mold (Botrytis cinerea). Peptides were sprayed 24 h post infection at concentration of 0.1 g/l or 0.3 g/l. Disease control percentage was determined based on convex hull recovery, with a total of 7 plants examined (n=7) upon infection with Botrytis spores at 250 spores/ml.

[2] = general statement on onconase; cited from earlier work

MP18913 (PKKEEMSYMKRD)
Control of tomato grey mold infection, comparison in words [1]: as effective, or slightly more effective, than the chemically synthetized version

B1: Onconase: RNAse first identified in Rana pipiens, about 104 amino acids, used as insoluble carrier polypeptide (protein, UniProt P22069 1-104, looked up)
Protein P-30: QDWLTFQKKHITNTRDVDCDNIMSTNLFHCKDKNTFIYSRPEPVKAICKGIIASKNVLTTSEFYLSDCNVTSRPCKYKLKKSTNKFCVTCENQAPVHFVGVGSC
pI [2]: higher than 9.5

Reference: patent US20260218267A1, “METHODS AND COMPOSITIONS FOR PRODUCTION AND PURIFICATION OF PEPTIDES” (priority 2023, published 2026)
